Structures can show the parent of a compound that is named as a salt.
Experiments:
[1] = system: extracellular ApoE protein; assay: ApoE ELISA of conditioned media; format: cell-based, human; settings: MeWo cells, 1 μM, 72 hours
Description: Extracellular ApoE levels in serum-free conditioned media from melanoma cells treated with DMSO, GW3965, or T0901317 (1 μM each) were quantified using the ApoE ELISA kit (Innovative Research) at 72 hours following treatment.

[2] = system: human melanoma cells (MeWo, MeWo-LM2, HT-144, SK-Mel-2, SK-Mel-334.2); assay: Trans-well matrigel cell invasion assay, melanoma cells; format: cell-based
Description: Cancer cells were serum-starved in 0.2% FBS DMEM-based media for 12 hours. Trans-well invasion chambers (354480, BD Biosciences, Bedford, Mass.) were pre-equilibrated prior to beginning the assay by adding 0.5 mL of starvation media to the top and bottom chambers. After 30 minutes, the media in the top chamber was removed, and 0.5 mL of media containing 1×10^5 cancer cells was added into each matrigel-coated trans-well insert and incubated at 37° C. for 24 hours. For neutralization antibody and/or recombinant protein experiments, antibody/recombinant protein was added to each well at the start of the assay at the following concentrations as indicated in the figures: 5-40 μg/mL anti-ApoE 1D7 (Heart Institute, University of Ottawa), 5-40 μg/mL anti-IgG (AB-108-C, R&D Systems, Minneapolis, Minn.), 100 μM recombinant human ApoE3 (4696, BioVision, Mountain View, Calif.), and 100 μM BSA (A2153, Sigma-Aldrich). Upon completion of the assay, matrigel-coated inserts were washed with PBS, the cells at the top side of each insert were scraped off, and the inserts were fixed in 4% paraformaldehyde for 15 minutes. The inserts were then cut out and mounted onto slides using VectaShield mounting medium containing DAPI (H-1000, Vector Laboratories, Burlingame, Calif.). The basal side of each insert was imaged using an inverted fluorescence microscope (Zeiss Axiovert 40 CFL) at 5× magnification, taking three representative images for each insert. The number of invaded cells was quantified using ImageJ (NIH).
The cell invasion assay was performed as previously described in detail (Pencheva et al., 2012) using a trans-well matrigel invasion chamber system (354480, BD Biosciences). In brief, various melanoma cells were cultured in the presence of DMSO, GW3965, T0901317, or Bexarotene at 1 μM for 56 hours, after which melanoma cells were switched to starvation media (0.2% FBS) for 16 hours in the presence of each drug. Following starvation, cells were seeded into matrigel-coated trans-well inserts, and the invasion assay was allowed to proceed for 24 hours at 37° C. For ApoE antibody neutralization experiments, 40 μg/mL 1D7 anti-ApoE blocking antibody (Heart Institute, University of Ottawa, Ottawa, Canada) or 40p, g/mL anti-IgG control antibody (AB-108-C, R&D Systems, Minneapolis, Minn.) was added to each trans-well insert at the start of the assay.
The cells were then serum starved for 16 hours in 0.2% FBS media in the presence of each corresponding drug or DMSO. […] Meanwhile, cancer cells were trypsinized and viable cells were counted using trypan blue. […] The basal side of each insert was imaged using an inverted fluorescence microscope (Zeiss Axiovert 40 CFL) at 5× magnification, and the number of DAPI-positive cells was quantified using ImageJ.

[3] = system: human melanoma cells (MeWo, MeWo-LM2, A375-LM3, HT-144, SK-Mel-334.2); assay: Tail-vein lung metastatic colonization assay, bioluminescence imaging; format: in vivo
Description: After 8 hours, the transfection media was replaced with fresh media. After 48 hours, 1×10^5 cells were injected intravenously into NOD-SCID mice to assess lung metastatic colonization or through intracardiac injection into athymic nude mice to assess systemic metastasis. For cell invasion and endothelial recruitment in vitro assays, the cells were used 96 hours post-transfection.
Melanoma cells used for in vivo metastasis assays were transduced with a stably expressed retroviral construct encoding a luciferase reporter gene (Ponomarev et al., 2004), allowing us to monitor the in vivo progression of melanoma cells by bioluminescence imaging. The following numbers of melanoma cells, resuspended in 100 μL, of PBS, were injected intravenously via the tail-vein: 4×10^4 MeWo cells, 2.5×10^5 HT-144 cells, 2×10^5 SK-Mel-334.2 cells, 5×10^4B16F10 cells, and 1×10^5 YUMM cells. The MeWo, HT-144, and SK-Mel-334.2 cells were injected into 6-8 week-old sex-matched NOD scid mice, while the B16F10 and YUMM cells were injected into 6-8 week-old sex-matched C57BL/6 mice. In all experiments assessing at the effects of GW3965 on metastasis formation, mice were pre-treated on a control diet or a GW3965-supplemented diet (20 mg/kg) for 10 days. To assess the effect of GW3965 treatment on brain metastasis, 1×10^5 MeWo brain-metastatic derivatives were injected intracardially into athymic nude mice. Immediately following injection, mice were randomly assigned to a control diet or GW3965-supplemented diet (100 mg/kg). To determine whether oral delivery of GW3965 can inhibit the progression of incipient metastasis, NOD Scid mice were intravenously injected with 4×10^4 MeWo cells and the cells were allowed to colonize the lungs for 42 days, after which mice were blindedly assigned to a control diet or a GW3965-supplemented diet (100 mg/kg) treatment.

## O=S(=O)(c1ccccc1)N(CC(F)(F)F)c1ccc(C(O)(C(F)(F)F)C(F)(F)F)cc1 [T0901317 1]
[1]
  levels of secreted ApoE protein: elevated levels

## O=C(O)Cc1cccc(OCCCN(Cc2cccc(C(F)(F)F)c2Cl)CC(c2ccccc2)c2ccccc2)c1 [GW3965 2, 3-[3-[N-(2-Chloro-3-trifluoromethylbenzyl)-(2,2-diphenylethyl)amino]propyloxy]phenylacetic acid hydrochloride]
[2]; parental MeWo cells pre-treated 48 hours
  tumor cell invasion: decreased
[1]
  levels of secreted ApoE protein: elevated levels
[3]; MeWo cells pre-treated at 1 μM for 48 hours before injection
  reduction in metastatic colonization capacity: more than 50 fold
[3]; MeWo cells, oral in chow 20 mg/kg from 10 days before injection
  reduction in lung metastatic colonization: 31 fold
[3]; MeWo, chow 20 mg/kg
  survival times following metastatic colonization: significantly prolonged
[3]; MeWo, diet 100 mg/kg from d42
  suppression of colonization by incipient lung metastases: 28 fold
[3]; MeWo, diet 100 mg/kg from d42, lungs at d77
  number of macroscopic metastatic nodules formed: decreased
[3]; oral in diet
  metastatic colonization by HT-144 and SK-Mel-334.2: suppressed
[3]; parental MeWo cells, chow diet 20 mg/kg
  in vivo melanoma metastasis (lung, bioluminescence): significant reduction

## CC(CCOc1cccc(CC(=O)O)c1)N(Cc1cccc(C(F)(F)F)c1Cl)CC(c1ccccc1)c1ccccc1 (stereo not shown) [SB742881 25]
[2]; MeWo cells, 1 μM for 72 hours, compared with lower potency LXR agonists
  inhibition of cancer progression phenotypes (cell invasion, endothelial recruitment): more effective

## recombinant human ApoE3: recombinant human ApoE3 (4696, BioVision)
[2]; recombinant ApoE3 100 μM in cell media
  invasion by metastatic LM2 cells: significantly suppressed
[3]; MeWo-LM2 cells pre-incubated 24 hours at 100 μg/mL before injection, NOD-SCID mice
  suppression of metastatic colonization: over 300 fold

— US9399028B2, “Treatment of drug resistant cancer” (ROCKEFELLER UNIVERSITY (THE), priority 2012, dated 2016)
